Source: patent US7964634B2, “Therapeutic compounds” (Allergan, Inc., priority 2008, dated 2011)

Tested on: lashes and adjacent hairs of the eyelids
Test: Observation of eyelash and hair growth in glaucoma patients treated in one eye
Format: in vivo
Description: In the course of treating patients having glaucoma, treatment may only be appropriate in one eye. […] The lash appearance on the lids of the treated eyes would have appeared quite attractive if it represented a bilateral phenomenon. As a result of its asymmetric nature, the long lashes on one side could be construed as disturbing from a cosmetic standpoint. A systemic examination was preformed as a result of the asymmetric phenomenon. It soon became apparent that this altered appearance was not an isolated finding.
The changes in the lashes were apparent on gross inspection in several patients once attention was focused on the issue. In those with light colored hair and lashes, the differences were only seen easily with the aid of the high magnification and lighting capabilities of the slit lamp biomicroscope. In the course of glaucoma follow-up examination, attention is generally immediately focused on the eye itself. As a result of the high power magnification needed only one eye is seen at a time and the eye is seen at a high enough power that the lashes are not in focus. At these higher powers, any lash asymmetry between the two eyes is not likely to be noticed except by careful systematic comparison of the lashes and adjacent hairs of the eyelids of the two eyes. […]

Compound: CCNC(=O)CCC/C=C\C[C@@H]1[C@@H](/C=C/[C@@H](O)CCc2ccccc2)[C@H](O)C[C@@H]1O [bimatoprost]
- differences in lashes and adjacent hairs of the treated side (all patients taking the drug on a unilateral basis for longer than 6 months): Definite differences could be identified to varying degrees
- lash appearance in treated eye versus non-treated eye (glaucoma patient treated in one eye only): longer, thicker, and fuller in the treated eye than in the non-treated eye
